Where a name gives a salt, the structure may show the parent alone. Where only a bound is given, the exact number is not on record here.

Usually IC50 stands for the concentration that inhibits the measured activity by half.

This test deals with IL-2 production. In words: Inhibition of IL-2 production in PHA-activated Jurkat cells (ELISA). The test is classed as cell-based. As to conditions: Homo sapiens, Jurkat, 20 h, PHA 2.5 μg/mL, IL-2 ELISA. On the technique in general: In an ELISA, binding on a coated surface is turned into a signal by an enzyme label.
Compound `O=C(Nc1nc(-c2cc[nH]n2)c(-c2cccc(C(F)(F)F)c2)s1)c1c(F)cccc1F` [Compound 100, N-(4-(1H-Pyrazol-3-yl)-5-(3-(trifluoromethyl)phenyl)thiazol-2-yl)-2,6-difluorobenzamide] returned an IC50 of 200 to 500 nM.

Take `O=C(Nc1nc(-c2ncc[nH]2)c(-c2cccc(C(F)(F)F)c2)s1)c1c(F)cccc1F` [Compound 78, N-(4-(1H-Imidazol-2-yl)-5-(3-(trifluoromethyl)phenyl)thiazol-2-yl)-2,6-difluorobenzamide hydrochloride]: the half-maximal inhibitory concentration (IC50) is above 1000 nM.

`Cc1cnccc1NC(=O)c1ncc(-c2cc(-c3nccs3)ccc2C)s1` [Compound 133, 5-(2-methyl-5-(thiazol-2-yl)phenyl)-N-(3-methylpyridin-4-yl)thiazole-2-carboxamide]: the IC50 was above 1000 nM.

With `C=CCOc1ccc(C(F)(F)F)cc1-c1cnc(NC(=O)c2c(F)cccc2F)s1` [Compound 65, N-(5-(2-(Allyloxy)-5-(trifluoromethyl)phenyl)thiazol-2-yl)-2,6-difluorobenzamide], the IC50 was above 1000 nM.

For the compound `Cc1nc(-c2nc(NC(=O)c3c(F)cccc3F)sc2-c2cccc(C(F)(F)F)c2)c(C)s1` [Compound 95, N-(2′,5′-dimethyl-5-(3-(trifluoromethyl)phenyl)-4,4′-bithiazol-2-yl)-2,6-difluorobenzamide], the concentration for half-maximal inhibition (IC50) was above 1000 nM.

For `Cc1ccc(-c2nccs2)cc1-c1ncc(C(=O)Nc2c(F)cccc2F)s1` [Compound 122, N-(2,6-difluorophenyl)-2-(2-methyl-5-(thiazol-2-yl)phenyl)thiazole-5-carboxamide], the IC50 lay within 30 to 50 nM.

`CC(C)(O)c1nc(NC(=O)c2c(F)cccc2F)sc1-c1cccc(C(F)(F)F)c1` [Compound 68, 2,6-Difluoro-N-(4-(2-hydroxypropan-2-yl)-5-(3-(trifluoromethyl)phenyl)thiazol-2-yl)benzamide]: the IC50 was above 1000 nM.

Take `Cc1nc(NC(=O)c2c(F)cccc2F)sc1-c1cccc(C(F)(F)F)c1` [Compound 9, 2,6-Difluoro-N-[4-methyl-5-(3-trifluoromethyl-phenyl)-thiazol-2-yl]-benzamide]: the IC50 fell in the range of 30 to 50 nM.

In the case of `O=Cc1nc(NC(=O)c2c(F)cccc2F)sc1-c1cccc(C(F)(F)F)c1` [Compound 67, 2,6-Difluoro-N-(4-formyl-5-(3-(trifluoromethyl)phenyl)thiazol-2-yl)benzamide], the IC50 is above 1000 nM.

Turning to `O=C(Nc1nc(-c2ccon2)c(-c2cccc(C(F)(F)F)c2)s1)c1c(F)cccc1F` [Compound 106, 2,6-Difluoro-N-(4-(isoxazol-3-yl)-5-(3-(trifluoromethyl)phenyl)thiazol-2-yl)benzamide], the IC50 was 100 to 200 nM.

The compound `Cc1nc(C(=O)Nc2c(F)cccc2F)sc1-c1cccc(-c2ncco2)c1` [Compound 116, N-(2,6-difluorophenyl)-4-methyl-5-(3-(oxazol-2-yl)phenyl)thiazole-2-carboxamide] had an IC50 of 50 to 100 nM.

The compound `CON(C)C(=O)c1nc(NC(=O)c2c(F)cccc2F)sc1-c1cccc(C(F)(F)F)c1` [Compound 93, 2-(2,6-difluorobenzamido)-N-methoxy-N-methyl-5-(3-(trifluoromethyl)phenyl)thiazole-4-carboxamide] displayed a half-inhibitory concentration (IC50) above 1000 nM.

For `Cc1nc(NC(=O)c2c(F)cccc2F)sc1-c1cc(Br)c2c(c1)OCO2` [Compound 56, N-(5-(7-Bromobenzo[d][1,3]dioxol-5-yl)-4-methylthiazol-2-yl)-2,6-difluorobenzamide], the IC50 was 200 to 500 nM.

Regarding `Cc1nc(NC(=O)c2ccncc2F)sc1-c1cccc(C(F)(F)F)c1` [Compound 10, 3-Fluoro-N-[4-methyl-5-(3-trifluoromethyl-phenyl)-thiazol-2-yl]-isonicotinamide], the half-inhibitory concentration (IC50) is above 1000 nM.

With `COC(=O)c1cccc(-c2sc(NC(=O)c3c(F)cccc3F)nc2C(=O)OC)c1` [Compound 114, Methyl 2-(2,6-difluorobenzamido)-5-(3-(methoxycarbonyl)phenyl)thiazole-4-carboxylate], the IC50 is above 1000 nM.

The values above are taken from patent publication US8455658B2, “Thiazole and thiadiazole compounds for inflammation and immune-related uses” (Synta Pharmaceuticals Corp., priority 2006, dated 2013).
